Results as given in the NIST ThermoML archive (doi:10.1016/j.jct.2007.08.004).
Several values for one entry are separate records, joined by “and”; a condition that tells them apart may be missing. Equal entries are not always repeated. ± gives the expanded uncertainty stated by the source.

Tests used:
[1] = molar heat capacity at constant pressure; conditions: 101.33 kPa, Small sample (50 mg) DSC
[2] = for vapor or sublimation pressure: Calculated from knudsen effusion weight loss; for Triple point temperature: DTA
[3] = Molar enthalpy of transition or fusion; conditions: DSC

O=C1NCCCN1 [tetrahydropyrimidin-2(1H)-one]
Crystal
Conditions	molar heat capacity at constant pressure [J/K/mol]	vapor or sublimation pressure
[1], 268.15 K	117.2 ± 2.3	–
[1], 270.15 K	118 ± 2.4	–
[1], 275.15 K	120.1 ± 2.4	–
[1], 280.15 K	122.2 ± 2.4	–
[1], 285.15 K	124.1 ± 2.5	–
[1], 290.15 K	126.2 ± 2.5	–
[1], 295.15 K	128.1 ± 2.6	–
[1], 298.15 K	129.5 ± 2.6	–
[1], 300.15 K	130.4 ± 2.6	–
[1], 305.15 K	132.7 ± 2.7	–
[1], 310.15 K	135.3 ± 2.7	–
[1], 315.15 K	137.8 ± 2.8	–
[1], 320.15 K	140.2 ± 2.8	–
[1], 325.15 K	142.6 ± 2.9	–
[1], 330.15 K	145.1 ± 2.9	–
[1], 335.15 K	147.3 ± 2.9	–
[1], 340.15 K	150.1 ± 3	–
[1], 345.15 K	152.2 ± 3	–
[1], 350.15 K	155.1 ± 3.1	–
[1], 355.15 K	157.2 ± 3.1	–
[1], 360.15 K	159.9 ± 3.2	–
[1], 365.15 K	163.8 ± 3.3	–
[1], 370.15 K	166.5 ± 3.3	–
[1], 375.15 K	169.8 ± 3.4	–
[1], 380.15 K	172.4 ± 3.4	–
[1], 385.15 K	175.1 ± 3.5	–
[1], 390.15 K	177.3 ± 3.5	–
[1], 395.15 K	180.4 ± 3.6	–
[1], 400.15 K	183.3 ± 3.7	–
[1], 405.15 K	186.5 ± 3.7	–
[1], 410.15 K	189.8 ± 3.8	–
[1], 415.15 K	193.9 ± 3.9	–
[1], 420.15 K	197.1 ± 3.9	–
[1], 425.15 K	200.8 ± 4	–
[1], 430.15 K	202.7 ± 4.1	–
[1], 435.15 K	204.9 ± 4.1	–
[1], 440.15 K	207.5 ± 4.2	–
[1], 445.15 K	210.3 ± 4.2	–
[1], 450.15 K	213.3 ± 4.3	–
[1], 455.15 K	215.9 ± 4.3	–
[1], 460.15 K	219.1 ± 4.4	–
[1], 465.15 K	222.2 ± 4.4	–
[1], 470.15 K	224.9 ± 4.5	–
[2], 363.19 K	–	0.0001292 ± 2.1e-05 kPa and 0.0001261 ± 2.1e-05 kPa and 0.0001216 ± 2.1e-05 kPa
[2], 365.18 K	–	0.0001581 ± 2.1e-05 kPa and 0.0001562 ± 2.1e-05 kPa and 0.0001488 ± 2.1e-05 kPa
[2], 367.14 K	–	0.0001903 ± 2.1e-05 kPa and 0.0001913 ± 2.1e-05 kPa and 0.0001858 ± 2.1e-05 kPa
[2], 369.19 K	–	0.0002232 ± 2.2e-05 kPa and 0.0002283 ± 2.2e-05 kPa
[2], 371.17 K	–	0.000271 ± 2.2e-05 kPa and 0.0002737 ± 2.2e-05 kPa and 0.0002643 ± 2.2e-05 kPa
[2], 373.15 K	–	0.0003343 ± 2.3e-05 kPa and 0.0003328 ± 2.3e-05 kPa
[2], 375.18 K	–	0.0003988 ± 2.4e-05 kPa and 0.000402 ± 2.5e-05 kPa
[2], 377.18 K	–	0.0004813 ± 2.6e-05 kPa and 0.0004804 ± 2.6e-05 kPa and 0.0004655 ± 2.6e-05 kPa
[2], 379.16 K	–	0.0005717 ± 2.9e-05 kPa and 0.0005887 ± 2.9e-05 kPa and 0.0005753 ± 2.9e-05 kPa
[2], 381.18 K	–	0.000719 ± 3.2e-05 kPa and 0.000702 ± 3.2e-05 kPa and 0.000673 ± 3.1e-05 kPa
[2], 383.18 K	–	0.0008587 ± 3.6e-05 kPa and 0.0008463 ± 3.6e-05 kPa
[2], 385.16 K	–	0.001027 ± 8e-05 kPa and 0.0009846 ± 4e-05 kPa

O=C1NCCN1 [2-imidazolidinone]
Conditions	molar heat capacity at constant pressure [J/K/mol]	vapor or sublimation pressure
[1], 268.15 K, Crystal 2	99.4 ± 2	–
[1], 270.15 K, Crystal 2	100 ± 2	–
[1], 275.15 K, Crystal 2	101.5 ± 2	–
[1], 280.15 K, Crystal 2	102.7 ± 2.1	–
[1], 285.15 K, Crystal 2	103.9 ± 2.1	–
[1], 290.15 K, Crystal 2	105.1 ± 2.1	–
[1], 295.15 K, Crystal 2	106.3 ± 2.1	–
[1], 298.15 K, Crystal 2	107.7 ± 2.2	–
[1], 300.15 K, Crystal 2	108.5 ± 2.2	–
[1], 305.15 K, Crystal 2	110.2 ± 2.2	–
[1], 310.15 K, Crystal 2	111.9 ± 2.2	–
[1], 315.15 K, Crystal 2	113.2 ± 2.3	–
[1], 320.15 K, Crystal 2	115.4 ± 2.3	–
[1], 325.15 K, Crystal 2	117.3 ± 2.3	–
[1], 330.15 K, Crystal 2	119 ± 2.4	–
[1], 335.15 K, Crystal 2	120.9 ± 2.4	–
[1], 338.15 K, Crystal 2	122.1 ± 2.4	–
[2], 327.2 K, Crystal 2	–	0.0001064 ± 2e-05 kPa and 0.0001074 ± 2e-05 kPa and 0.0001035 ± 2e-05 kPa
[2], 329.21 K, Crystal 2	–	0.0001364 ± 2.1e-05 kPa and 0.0001328 ± 2.1e-05 kPa and 0.0001305 ± 2.1e-05 kPa
[2], 331.14 K, Crystal 2	–	0.0001664 ± 2.1e-05 kPa and 0.0001631 ± 2.1e-05 kPa and 0.0001658 ± 2.1e-05 kPa
[2], 333.19 K, Crystal 2	–	0.0002142 ± 2.1e-05 kPa and 0.0002049 ± 2.1e-05 kPa and 0.0002095 ± 2.1e-05 kPa
[2], 335.21 K, Crystal 2	–	0.0002681 ± 2.2e-05 kPa and 0.0002592 ± 2.2e-05 kPa and 0.0002535 ± 2.2e-05 kPa
[2], 337.15 K, Crystal 2	–	0.0003214 ± 2.3e-05 kPa and 0.000301 ± 2.3e-05 kPa and 0.00032 ± 2.3e-05 kPa
[2], 339.2 K, Crystal 2	–	0.0003984 ± 2.4e-05 kPa and 0.0003883 ± 2.4e-05 kPa
[2], 341.21 K, Crystal 2	–	0.000457 ± 2.6e-05 kPa and 0.0004831 ± 2.6e-05 kPa and 0.0004721 ± 2.6e-05 kPa
[2], 343.14 K, Crystal 2	–	0.0005644 ± 2.8e-05 kPa and 0.0005525 ± 2.8e-05 kPa and 0.0005387 ± 2.8e-05 kPa
[2], 345.19 K, Crystal 2	–	0.0006621 ± 3.1e-05 kPa and 0.0006672 ± 3.1e-05 kPa and 0.0006399 ± 3e-05 kPa
[2], 347.2 K, Crystal 1	–	0.0007833 ± 3.4e-05 kPa and 0.0008114 ± 3.5e-05 kPa and 0.0007693 ± 3.4e-05 kPa
[2], 349.16 K, Crystal 1	–	0.0009806 ± 4e-05 kPa and 0.0009769 ± 4e-05 kPa and 0.0009472 ± 3.9e-05 kPa

Conditions	Molar enthalpy of transition or fusion, [3] [kJ/mol]	Triple point temperature, [2] [K]
Crystal 1	13.2 ± 0.4	404.8 ± 0.5
Crystal 2	3.8 ± 0.3	346.6 ± 0.7
